Key:
Format in all cases: physicochemical
[1] = Storage solubility in No. 1 and No. 2 Heating Oil at ambient temperature and -10° C.
Method: The resultant mixtures were stored at ambient temperatures (20° to 25° C.) and at -10° C. Where any separation of dye occurred, the dye content of the remaining solution was determined colorimetrically.

[2] = Storage solubility in xylene at 20°-25° C. and -10° C.
Method: The solutions obtained were stored at 20°-25°C. and at -10° C. Where any separation of dye occurred, the dye content of the remaining solution was determined colorimetrically.

[3] = Physical state of the isolated dye; settings: for Physical State of Dye: after isolation according to Procedure B
From the text: alternatively, the crude liquid dye may be taken up with a volatile solvent and the solvent removed during the drying process to yield a non-volatile liquid colorant.

[4] = General statements on solubility and dissolution rate in petroleum fuels
[5] = Dissolution of 58% dye in 42% fuel by warming, cooling to 25° C. (six heating/diesel oils); settings: 58% by weight dye, warmed, cooled to 25° C.
Method: No. 2 Regular Grade Diesel Oil
Each dye-fuel oil mixture was warmed with stirring and then cooled to 25° C.

[6] = Rate and extent of dissolution in No. 1 and No. 2 Heating Oils at 25° C. (colorimetric); settings: 25° C.
Method: The solubility properties of each of the dyes of Examples 16-41 were evaluated in the fuels No. 1 and No. 2 Heating Oils, respectively. The procedure was as follows:
Where the dyes are solid dyes, excess of pulverized solid dye, far beyond that which would dissolve, i.e., 30 to 35% dye, was added to the respective oils at 25° C. and agitated at constant speed. Samples were removed at 1, 10 and 20 minute intervals, filtered, and the amount of dissolved dye determined colorimetrically.
The tarry non-solid dyes were charged in proportions of 50-60% dye to 50-40% oil rather than 30-35% used for the solid dyes. In fact, it was very difficult to stir the tarry dye-fuel oil mixture at a dye concentration of 50%. Samples for these dyes were taken after 2 minutes. The longer initial time for the tarry dyes was to permit reasonable contact between solvent and the viscous, condensed dye.

**Q.** For `CCCCC(CC)CNc1ccc2ccccc2c1N=Nc1ccc(N=Nc2ccccc2)cc1` (stereo not shown) [Example 2], which “Solubility (% by Wt.)” value ([1]; No. 1 Heating Oil, 20° C.-25° C. (Table 8)) is on record?
**A.** 4.4 % by Wt.

**Q.** What about the “Solubility (% by Wt.)” value ([1]; No. 2 Heating Oil, 20° C.-25° C. (Table 9)) of the same molecule?
**A.** 5.1 % by Wt.

**Q.** And the “Solubility (% by Wt.)” value ([2]; 20° C.-25° C. (Table 12))?
**A.** 25.5 % by Wt.

**Q.** What about the “Solubility (% by Wt.)” value ([2]; -10° C. (Table 12)) of the same molecule?
**A.** 10.35 % by Wt.

**Q.** What about the “Physical State of Dye at 20° C.” value [3] of the same molecule?
**A.** Solid

**Q.** What about the “Physical State of Dye” value [3] of the same molecule?
**A.** Solid

**Q.** What about the “crystallization from oily solvents” value ([4]; aromatic solvents, diesel and heating oils) of the same molecule?
**A.** crystallizes from oily solvents, including aromatic solvents, and diesel and heating oils

**Q.** What about the “behavior of dye-fuel oil mixture on cooling/storage” value [5] of the same molecule?
**A.** precipitated as a solid mass almost immediately upon cooling to 25 °C

**Q.** And the “Percent Dissolved” value ([6]; No. 1 Fuel Oil, 1 Minute, aminoazobenzene dyes (Table 4))?
**A.** 3.43%

**Q.** What about the “Percent Dissolved” value ([6]; No. 1 Fuel Oil, 10 Minutes, aminoazobenzene dyes (Table 4)) of the same molecule?
**A.** 3.87%

**Q.** What about the “Percent Dissolved” value ([6]; No. 1 Fuel Oil, 20 Minutes, aminoazobenzene dyes (Table 4)) of the same molecule?
**A.** 4.47%

**Q.** And the “Percent Dissolved” value ([6]; No. 2 Fuel Oil, 1 Minute, aminoazobenzene dyes (Table 5))?
**A.** 4.63%

**Q.** What about the “Percent Dissolved” value ([6]; No. 2 Fuel Oil, 10 Minutes, aminoazobenzene dyes (Table 5)) of the same molecule?
**A.** 4.90%

**Q.** And the “Percent Dissolved” value ([6]; No. 2 Fuel Oil, 20 Minutes, aminoazobenzene dyes (Table 5))?
**A.** 5.13%

**Q.** What does the source list for `CCCCC(CC)COCCCNc1ccc2ccccc2c1N=Nc1ccc(N=Nc2ccccc2C)cc1C` (stereo not shown) [Example 7]?
**A.** Solubility (% by Wt.) ([1]; No. 1 Heating Oil, 20° C.-25° C. (Table 10)): 8.3 % by Wt.; Solubility (% by Wt.) ([1]; No. 2 Heating Oil, 20° C.-25° C. (Table 11)): 7.7 % by Wt.; Solubility (% by Wt.) ([2]; 20° C.-25° C. (Table 12)): Complete; Solubility (% by Wt.) ([2]; -10° C. (Table 12)): 20.8 % by Wt.; Physical State of Dye at 20° C. [3]: Solid; Physical State of Dye [3]: Solid; solubility in petroleum fuels (in words) [4]: relatively low solubility in petroleum fuels; behavior of dye-fuel oil mixture on cooling/storage [5]: precipitated as a solid mass almost immediately upon cooling to 25 °C; Percent Dissolved ([6]; No. 1 Fuel Oil, 1 Minute, aminoazotoluene dyes (Table 6)): 6.44%; Percent Dissolved ([6]; No. 1 Fuel Oil, 10 Minutes, aminoazotoluene dyes (Table 6)): 7.41%; Percent Dissolved ([6]; No. 1 Fuel Oil, 20 Minutes, aminoazotoluene dyes (Table 6)): 8.35%; Percent Dissolved ([6]; No. 2 Fuel Oil, 1 Minute, aminoazotoluene dyes (Table 7)): 6.12%; Percent Dissolved ([6]; No. 2 Fuel Oil, 10 Minutes, aminoazotoluene dyes (Table 7)): 6.85%; Percent Dissolved ([6]; No. 2 Fuel Oil, 20 Minutes, aminoazotoluene dyes (Table 7)): 7.71%
